Patent US9108950B2, “1-pyrazolyl-3-(4-((2-anilinopyrimidin-4-yl)oxy)napththalen-1-yl) ureas as p38 MAP kinase inhibitors” (Respivert Ltd., priority 2011, dated 2015)

Assays:
[1] = Physical stability on storage (TGA, XRPD, IR, DSC, appearance); assay type: physicochemical; set-up: key to XRD / IR: Cryst.: crystalline; ~Ref: pattern identical with reference sample; settings: for Appearance / IR / XRD / DSC max / TGA <100° C. weight loss / TGA <180° C. weight loss: form B micronized
Experimental: Patterns were obtained on a PANalytical (Philips) X'PertPRO MPD diffractometer equipped with a Cu LFF X-ray tube (45 kV; 40 mA; Bragg-Brentano; spinner stage) and were acquired using Cu Kα radiation under the following measurement conditions: scan mode: continuous; scan range: 3 to 50° 2θ; step size: 0.02°/step; counting time: 30 sec/step; spinner revolution time: 1 sec; incident beam path: program. divergence slit: 15 mm; Soller slit: 0.04 rad; beam mask: 15 mm; anti scatter slit: 1°; beam knife: +; Diffracted beam path: long anti scatter shield: +; Soller slit: 0.04 rad; Ni filter: +; detector: X'Celerator. Samples were prepared by spreading on a zero background sample holder.
Micro attenuated total reflectance (microATR) was used and the sample was analyzed using a suitable microATR accessory and the following measurement conditions: apparatus: Thermo Nexus 670 FTIR spectrometer; number of scans: 32; resolution: 1 cm^−1; wavelength range: 4000 to 400 cm^−1; detector: DTGS with KBr windows; beamsplitter: Ge on KBr; micro ATR accessory: Harrick Split Pea with Si crystal.
Data were collected on a TA-Instruments Q1000 MTDSC equipped with RCS cooling unit. Typically 3 mg of each compound, in a standard aluminium TA-Instrument sample pan, was heated at 10° C./min from 25 C to 300° C. A nitrogen purge at 50 mL/min was maintained over the sample.
Data were collected on a TA-Instruments Q500 thermogravimeter Typically 10 mg of each sample was transferred into a pre-weighed aluminium pan and was heated at 20° C./min from ambient temperature to 300° C. or […] unless otherwise stated.
Thermal analysis of Compound (I) as the anhydrous free base in crystalline polymorphic form B (micronized) was undertaken using TGA, DVS, XRPD analysis, IR spectroscopy and DSC as described in General Procedures. Where appropriate, a sample at ambient temperature and relative humidity (reference sample/“0 days”) was compared with samples stored at various temperatures and relative humidities (comparative samples).
The reference sample (t=0) and the comparative samples that were exposed prior to analysis to different storage conditions, were heated at a rate of 20° C./min from RT to 300° C. The TGA curve of the reference sample (t=0) is illustrated in FIG. 3 and the results for all samples are summarised below (Table 8). […] The weight loss that occurred above 180° C. was due to evaporation and decomposition of the product. Comparing this weight loss profile with those of the comparative samples in Table 8, no significant differences were observed.
The XPRD diffraction pattern of the reference sample (t=0) is illustrated in FIG. 2 and the IR trace is illustrated in FIG. 6. The diffraction pattern and IR trace were compared with those of the comparative samples (exposed to different storage conditions) and the results are summarised in Table 8. The diffraction patterns and IR traces were identical for all samples.
The reference sample (t=0) and comparative samples, previously exposed to different storage conditions, were heated at a rate of 10° C./min from 25° C. to 300° C. The DSC curve of the reference sample is illustrated in FIG. 7 and the results for all samples are summarised below (Table 8). From FIG. 7, it is evident that the reference sample melted with decomposition at 214.0° C.

BEAS2B cells = experiment: Poly I:C-induced ICAM-1 expression in BEAS2B cells; assay type: cell-based; settings: Homo sapiens, BEAS-2B, read-out: PolyIC/ICAM1 IC50 (BEAS2B)
Experimental: Poly I:C was used in these studies as a simple, RNA virus mimic. Poly I:C-Oligofectamine mixture (1 μg/mL Poly I:C, ±2% Oligofectamine, 25 μL; Invivogen Ltd., San Diego, Calif., and Invitrogen, Carlsbad, Calif., respectively) was transfected into BEAS2B cells (human bronchial epithelial cells, ATCC). Cells were pre-incubated with final concentrations of test compounds for 2 hr and the level of ICAM-1 expression on the cell surface was determined by cell-based ELISA. […]
The cells were washed with PBS-Tween (3×200 μL) and incubated with the secondary antibody (100 μL; HRP-conjugated anti-rabbit IgG, Dako Ltd., Glostrup, Denmark). […] The ICAM-1 signal was detected by reading […] the absorbance at 450 nm against a reference wavelength of 655 nm using a spectrophotometer. The cells were then washed with PBS-Tween (3×200 μL) and total cell numbers in each well were determined by reading absorbance at 595 nm after Crystal Violet staining (50 μL of a 2% solution in PBS) and elution by 1% SDS solution (100 μL) in distilled water. The measured OD 450-655 readings were corrected for cell number by dividing with the OD595 reading in each well. The inhibition of ICAM-1 expression was calculated at each concentration of test compound by comparison with vehicle control.

With `Cc1ccc(-n2nc(C(C)(C)C)cc2NC(=O)Nc2ccc(Oc3ccnc(Nc4ccccc4)n3)c3ccccc23)cc1` [Compound (I), 1-(3-(tert-Butyl)-1-(p-tolyl)-1H-pyrazol-5-yl)-3-(4-((2-(phenylamino)pyrimidin-4-yl)oxy)naphthalen-1-yl)urea] the “physical stability” value ([1]; form B) was “good physical stability”, the Appearance ([1]; 1 week/70° C./75% RH) was “off-white” and the IR ([1]; 1 week/70° C./75% RH) was “~Ref”. The XRD ([1]; 1 week/70° C./75% RH) was “~Ref”, the Appearance ([1]; 1 week/80° C.) was “off-white” and the IR ([1]; 1 week/80° C.) was “~Ref”. For the same compound, the XRD ([1]; 1 week/80° C.) was “~Ref”, the Appearance ([1]; 4 weeks/40° C./75% RH) was “off-white” and the DSC max ([1]; 4 weeks/40° C./75% RH) was 214 °C. For the same compound, the IR ([1]; 4 weeks/40° C./75% RH) was “~Ref”, the “TGA <100° C. weight loss” value ([1]; 4 weeks/40° C./75% RH) was 0.8% and the “TGA <180° C. weight loss” value ([1]; 4 weeks/40° C./75% RH) was 0.3%. For the same compound, the XRD ([1]; 4 weeks/40° C./75% RH) was “~Ref”, the Appearance ([1]; 4 weeks/50° C.) was “off-white” and the DSC max ([1]; 4 weeks/50° C.) was 214 °C. For the same compound, the IR ([1]; 4 weeks/50° C.) was “~Ref”, the “TGA <100° C. weight loss” value ([1]; 4 weeks/50° C.) was 1.3% and the “TGA <180° C. weight loss” value ([1]; 4 weeks/50° C.) was 0.5%. The XRD ([1]; 4 weeks/50° C.) was “~Ref”, the Appearance ([1]; 4 weeks/RT/56% RH) was “off-white” and the DSC max ([1]; 4 weeks/RT/56% RH) was 214 °C. The IR ([1]; 4 weeks/RT/56% RH) was “~Ref”, the “TGA <100° C. weight loss” value ([1]; 4 weeks/RT/56% RH) was 0.5% and the “TGA <180° C. weight loss” value ([1]; 4 weeks/RT/56% RH) was 0.4%. The XRD ([1]; 4 weeks/RT/56% RH) was “~Ref”, the Appearance ([1]; 4 weeks/RT/75% RH) was “off-white” and the DSC max ([1]; 4 weeks/RT/75% RH) was 214 °C. The IR ([1]; 4 weeks/RT/75% RH) was “~Ref”, the “TGA <100° C. weight loss” value ([1]; 4 weeks/RT/75% RH) was 0.9% and the “TGA <180° C. weight loss” value ([1]; 4 weeks/RT/75% RH) was 0.5%. The XRD ([1]; 4 weeks/RT/75% RH) was “~Ref”, the Appearance ([1]; 4 weeks/RT/<5% RH) was “off-white” and the DSC max ([1]; 4 weeks/RT/<5% RH) was 214 °C. For the same compound, the IR ([1]; 4 weeks/RT/<5% RH) was “~Ref”, the “TGA <100° C. weight loss” value ([1]; 4 weeks/RT/<5% RH) was 0.8% and the “TGA <180° C. weight loss” value ([1]; 4 weeks/RT/<5% RH) was 0.5%. For the same compound, the XRD ([1]; 4 weeks/RT/<5% RH) was “~Ref”, the Appearance ([1]; T = zero) was “off-white” and the DSC max ([1]; T = zero) was 214 °C. The IR ([1]; T = zero) was “Cryst”, the “TGA <180° C. weight loss” value ([1]; T = zero) was 0.6% and the XRD ([1]; T = zero) was “Cryst”. It also gave an IC50 (BEAS2B cells) of 10.2 nM.
